As a reminder, the Kd is the free concentration of one partner at which half of the binding sites on the other are occupied at equilibrium, for simple one-to-one binding.

The structures appear in SMILES notation. Activity calls are given as the source filed them. The rule behind the calls is not given here. Some results are limits rather than exact numbers.

For this experiment, the target named is Influenza A virus M2 proton channel (A/TW/4845/1999 H1N1). Kind of experiment: NMR binding screen, influenza A virus M2 proton channel, Kd (AID 1549). The conditions noted are these: M2 protein.
Take `c1ccc(CCNc2ncnc3nc[nH]c23)cc1`: the Kd was > 4 mM (inactive).

For `Cc1occc1C(=O)Nc1cc(C(C)(C)C)on1`, the Kd was > 4 mM (inactive). The figure for `CO[C@H]1[C@@H](O)[C@@H](C)O[C@H](O[C@H]2CCC3(C)C4CCC5(C)[C@@H](C6=CC(=O)OC6)CC[C@]5(O)[C@@H]4CC[C@]3(O)C2)[C@@H]1O` (some centres undefined) is > 4 mM (inactive); for `COc1ccc(/C=C/c2cc(O)cc(O)c2)cc1` it is > 4 mM (inactive).

Regarding `O=S(=O)(O)c1cc[n+]([O-])cc1`, the Kd is > 4 mM (inactive). Then `Fc1ccc(N2CCNCC2)cc1`, with > 4 mM (inactive).

For `c1ccc(Cc2nnc3sc(-c4ccccn4)nn23)cc1`, the Kd was > 4 mM (inactive).

Regarding `CSc1nc(-c2ccco2)nn1S(C)(=O)=O`, the Kd was > 4 mM (inactive). `CC(=O)c1cccc(NS(=O)(=O)N2CCCCC2)c1`: the Kd is > 4 mM (inactive). As for `COc1c2ccoc2c(OC)c2oc(=O)ccc12`, the Kd was > 4 mM (inactive). With `CN1C(=O)c2ccc(N=C3NC(=O)CS3)cc2C1=O`, the Kd is > 4 mM (inactive). As for `Cc1cc(C)n2nc(Cc3ccccc3)nc2n1`, the Kd was > 4 mM (inactive). Then `N#CCc1nc2ccccc2s1`, with > 4 mM (inactive); and `Nc1ccc2c(c1)OCCO2`, with > 4 mM (inactive); and `CC(=O)O[C@H]1C[C@@H](OC(C)=O)C(C)(C)C2CC(=O)[C@]3(C)C(CC[C@@]4(C)[C@H](c5ccoc5)OC(=O)[C@H]5O[C@]543)[C@]21C` (some centres undefined), with > 4 mM (inactive). Consider `NCc1ccccc1N1CCOCC1`, for which the Kd was > 4 mM (inactive). Turning to `Cc1cc(C)n(S(=O)(=O)c2cc(C)c(C)cc2C)n1`, the Kd is > 4 mM (inactive).

For `CCOC(=O)N1CCN(c2ncnc3c2cnn3C)CC1`, the Kd is > 4 mM (inactive). As to `Cc1nn2c(nc1=O)SCC(c1ccccc1)=N2`, the Kd was > 4 mM (inactive). Then `Cn1c(=O)cc(O)c2ccccc21`, with > 4 mM (inactive); and `CC1(C)C(=O)CC[C@@]2(C)C1C[C@@H](O)[C@@]1(C)C3=CC(=O)O[C@@H](c4ccoc4)[C@]3(C)CCC21` (some centres undefined), with > 4 mM (inactive); and `O=C(Nc1nncs1)Oc1ccccc1`, with > 4 mM (inactive). Regarding `O=c1[nH]c(=S)c2c(n1-c1ccccc1)CCC2`, the Kd was > 4 mM (inactive). Turning to `CC1(C)Cc2nc3[nH]c(=S)[nH]c(=O)c3cc2CO1`, the Kd was > 4 mM (inactive). Then `O=C(NCc1ccc2c(c1)OCO2)c1cccs1`, with > 4 mM (inactive); and `Cc1ccc(N2C(=O)C3C4C=CC(O4)C3C2=O)cc1` (centres undefined), with > 4 mM (inactive); and `C=C[C@@]1(C)CC(=O)[C@@]2(O)[C@](C)(O1)[C@@H](OC(C)=O)[C@@H](O)C1C(C)(C)CC[C@H](O)[C@@]12C` (some centres undefined), with > 4 mM (inactive). In the case of `O=C(Nc1nnc(C(F)(F)F)s1)c1cccnc1`, the Kd is > 4 mM (inactive).

Regarding `CN(C)N1C(=O)C2CCCCC2C1=O` (centres undefined), the Kd is > 4 mM (inactive). Then `O=c1[nH]cnc2nc[nH]c12`, with > 4 mM (inactive). Then `Cc1nnc(SCC(=O)NC2CCCC2)[nH]c1=O`, with > 4 mM (inactive); and `N#Cc1cc2c(nc1SCc1ccncc1)CCC2`, with > 4 mM (inactive); and `COc1ccc(S(=O)(=O)N2CCOCC2)cc1C(C)C`, with > 4 mM (inactive). For `COc1c(O)cc2c(-c3ccccc3)cc(=O)oc2c1OC`, the Kd was > 4 mM (inactive). The figure for `COc1c(O)cccc1O` is > 4 mM (inactive). Consider `Cc1scc(C(=O)Nn2cnnc2)c1-c1ccccc1`, for which the Kd was > 4 mM (inactive).

`CC(=O)Nc1cc(C(N)=O)cc(C(N)=O)c1`: the Kd was > 4 mM (inactive). Then `COc1nc(C)ccc1-c1noc(-c2ccncc2)n1`, with > 4 mM (inactive); and `CCCN1CCC(N2CCC(O)CC2)CC1`, with > 4 mM (inactive); and `Cc1cc2cc(N)ccc2[nH]1`, with > 4 mM (inactive). As for `Cc1ccc(S(=O)(=O)/N=C2\NC(=O)CS2)cc1`, the Kd was > 4 mM (inactive). The figure for `CCOC(=O)CC1Sc2ccccc2NC1=O` (centres undefined) is > 4 mM (inactive). The figure for `CCC1=Nc2ccccc2-c2nnc(SC)nc2O1` is > 4 mM (inactive). As to `COc1ccc(-c2noc(-c3ccco3)n2)cc1OC`, the Kd is > 4 mM (inactive). As to `C=C1C([C@]2(C)C(CC(=O)OC)[C@@](C)(COC(C)=O)OC(=O)C[C@@H]2OC(C)=O)[C@@H](OC=O)[C@H](OC(=O)C(O)C(C)CC)[C@@]2(C)[C@H](c3ccoc3)CC(=O)C12O` (some centres undefined), the Kd is > 4 mM (inactive).

For `Nc1cc(-c2ccco2)[nH]n1`, the Kd was > 4 mM (inactive). Then `O=CN1CCN(C2CC(=O)N(c3ccccc3)C2=O)CC1` (centres undefined), with > 4 mM (inactive); and `CNC(=S)Nc1ccc2c(c1)OCO2`, with > 4 mM (inactive). For `NS(=O)(=O)c1ccc(N=Cc2cccs2)cc1`, the Kd is > 4 mM (inactive). As for `CCc1cc2c(SCC(=O)O)ncnc2s1`, the Kd is > 4 mM (inactive).

`Cc1cc(=O)n2[nH]c(C)cc2n1`: the Kd is > 4 mM (inactive). `O=C(NC(=S)NCCO)c1ccccc1`: the Kd was > 4 mM (inactive). Then `OCc1ccc2c(c1)CCO2`, with > 4 mM (inactive); and `CC(=O)c1ccc(-n2ccnc2)cc1`, with > 4 mM (inactive); and `Cc1nc2ccccc2c2c1C(=O)N(N)C2=O`, with > 4 mM (inactive). With `COC(=O)NNc1ncnc(N)c1[N+](=O)[O-]`, the Kd is > 4 mM (inactive). In the case of `CN1C(=O)CC[C@H]1c1cccnc1`, the Kd was > 4 mM (inactive). `CC(=O)Nc1nnc(-c2ccccc2)o1`: the Kd is > 4 mM (inactive). Then `N#Cc1c(N)c(C(=O)c2ccccc2)n2c1CCC2`, with > 4 mM (inactive). Take `CCSc1n[nH]c(=O)[nH]c1=O`: the Kd was > 4 mM (inactive). The figure for `CN1C(=O)/C(=C/c2ccccc2O)NC1=S` is > 4 mM (inactive); for `Nc1ccc2c(c1)C(=O)OC2` it is > 4 mM (inactive). Then `COc1cc(O)c(C(C)=O)c(OC)c1`, with > 4 mM (inactive); and `OCC1CN(Cc2ccccc2)CCO1` (centres undefined), with > 4 mM (inactive). As to `COc1ccc(/C=C2/NC(=S)NC2=O)cc1`, the Kd was > 4 mM (inactive). Then `Cc1[nH]ccc2c1[nH]c1cc(=O)ccc12`, with > 4 mM (inactive). The figure for `COc1cc2c(cc1OC)[C@@H]1C(=O)c3ccc4oc(C(C)C)cc4c3O[C@@H]1CO2` is > 4 mM (inactive); for `O=C(O)CNCC(O)Cn1c2ccccc2c2ccccc21` (centres undefined) it is > 4 mM (inactive). The figure for `O=C1CSC(=O)N1CN1CCCC1` is > 4 mM (inactive); for `C=C1C2CC[C@H]3[C@]4(C)C[C@H](OC5OC(CO)C(OS(=O)(=O)O)C(OS(=O)(=O)O)C5OC(=O)CC(C)C)C[C@@H](C(=O)O)[C@H]4CC[C@]3(C2)[C@H]1O` (some centres undefined) it is > 4 mM (inactive). As for `O=C(COc1ccccc1Cl)N1CCCC1`, the Kd is > 4 mM (inactive). Then `COC(=O)Nc1nc2c(s1)CCCC2`, with > 4 mM (inactive); and `NC[C@H]1O[C@H](O[C@H]2[C@H](O)[C@@H](O[C@H]3O[C@H](CO)[C@@H](O)[C@H](N)[C@H]3O)[C@H](N)C[C@@H]2N)[C@H](N)[C@@H](O)[C@@H]1O`, with > 4 mM (inactive); and `Nc1cc(C(F)(F)F)ccc1N1CCOCC1`, with > 4 mM (inactive). The figure for `CSc1ccccc1NC(=O)c1ccc(C)o1` is > 4 mM (inactive). The figure for `CC(C)(C)c1cc(N)n[nH]1` is > 4 mM (inactive); for `O=C(C1CCC(C(=O)N2CCCC2)CC1)N1CCCC1` (centres undefined) it is > 4 mM (inactive); for `Cn1c(=O)n(CC(=O)N2CCOCC2)c2ccccc21` it is > 4 mM (inactive). As for `CC(=O)OCC(=O)[C@@]1(O)CCC2C3CC[C@@H]4C[C@H](O)CC[C@]4(C)C3C(=O)C[C@@]21C` (some centres undefined), the Kd is > 4 mM (inactive). The figure for `O=C(NCN1CCOCC1)c1cnccn1` is > 4 mM (inactive); for `CC1(C)C=Cc2c(cc3occ(-c4ccc5c(c4)OCO5)c(=O)c3c2O)O1` it is > 4 mM (inactive); for `c1cncc(-c2nnc(-c3cccnc3)nn2)c1` it is > 4 mM (inactive).

Regarding `C[C@@H]1CC[C@@]2(OC1)OC1CC3C4CC=C5C[C@@H](O)CC[C@]5(C)C4CC[C@]3(C)C1[C@@H]2C` (some centres undefined), the Kd is > 4 mM (inactive).

Consider `CC1C[C@H]2CC(=O)[C@H]3CCCN4CCC[C@H]2[C@]34C1` (some centres undefined), for which the Kd is > 4 mM (inactive).

Take `Cc1nc(-c2cccc(N)c2)cs1`: the Kd is > 4 mM (inactive). With `Cn1nnc2cc(C(=O)NCc3ccco3)ccc21`, the Kd is > 4 mM (inactive). Then `O=C(O)CCc1ccc2c(c1)OCO2`, with > 4 mM (inactive). In the case of `NS(=O)(=O)c1ccc(F)cc1`, the Kd is > 4 mM (inactive).

As to `CC(=O)NC(O)C(=O)c1cccs1` (centres undefined), the Kd is > 4 mM (inactive).

As for `c1ccn(Cc2ccncc2)c1`, the Kd was > 4 mM (inactive). The figure for `C=C1CCC2C(CC2(C)C)C(=C)CC/C1=N/O` (centres undefined) is > 4 mM (inactive); for `COC(=O)c1cncn1C` it is > 4 mM (inactive); for `C/C=C/C(=O)Nc1ccc(NC(C)=O)cc1` it is > 4 mM (inactive). The figure for `CC1(C)C=Cc2cc3ccc(=O)oc3cc2O1` is > 4 mM (inactive); for `CCC[C@H]1CC2=C(C[C@@H](CC)CC3=C1C(=O)OC3=O)C(=O)OC2=O` it is > 4 mM (inactive).

Turning to `COc1cc2ccc(=O)oc2c2ccoc12`, the Kd was > 4 mM (inactive). `COCCn1c(N)nc2c1c(=O)[nH]c(=O)n2C`: the Kd was > 4 mM (inactive). As for `Cc1n[nH]c(=S)n1-c1ccc(C(=O)O)cc1`, the Kd is > 4 mM (inactive). The figure for `NCc1n[nH]c(=O)c2ccccc12` is > 4 mM (inactive).

The record behind these values is PubChem BioAssay AID1549 (Sanford-Burnham Center for Chemical Genomics, 2009).
